Patent publication US7056903B2, “Carboxylic acid derivatives as IP antagonists” (Syntex (U.S.A.) LLC, priority 2000, dated 2006)
Where a name gives a salt, the structure may show the parent alone.

Row | Structure (SMILES) | melting point
1 | O=C(N[C@@H](Cc1ccccc1)C(=O)O)OCCc1cc2cc(-c3ccccc3)ccc2o1 [Compound 128, (S)-3-phenyl-2-[2-(5-phenyl-benzofuran-2-yl)-ethoxycarbonylamino]-propionic acid] | 170.9 to 171.9 °C
2 | O=C(NC(Cc1ccccc1)C(=O)O)OCCCc1ccc(-c2ccccc2)cc1 (stereo not shown) [Compound 143, 2-(3-biphenyl-4-yl-propoxycarbonylamino)-3-phenyl-propionic acid] | 139.1 to 139.9 °C
3 | O=C(NC(Cc1cnccn1)C(=O)O)OCc1cc2cc(-c3ccccc3)ccc2o1 (stereo not shown) [Compound 165, 2-(5-phenyl-benzofuran-2-ylmethoxycarbonylamino)-3-pyrazin-2-yl-propionic acid] | 144.9 to 146 °C
4 | O=C(NC(Cc1ccc(F)cc1)C(=O)O)OCc1ccc(-c2ccc(O)cc2)cc1 (stereo not shown) [Compound 142, 3-(4-fluoro-phenyl)-2-(4′-hydroxy-biphenyl-4-ylmethoxycarbonylamino)-propionic acid] | 65 to 74 °C
5 | O=C(N[C@H](Cc1ccccc1)C(=O)O)OCc1ccc2oc(-c3ccccc3)cc2c1 [Compound 29, (R)-3-Phenyl-2-(2-phenyl-benzofuran-5-ylmethoxycarbonylamino)-propionic acid] | 172.8 to 173.5 °C
6 | O=C(N[C@H](Cc1nc2ccccc2[nH]1)C(=O)O)OCc1ccc(-c2ccccc2)cc1 [Compound 150, (R)-3-(1H-benzoimidazol-2-yl)-2-(biphenyl-4-ylmethoxycarbonylamino)-propionic acid] | 243 to 245 °C
7 | O=C(N[C@H](Cc1ccccc1)C(=O)O)OCc1ccc2oc(-c3ccc(F)cc3)nc2c1 [Compound 158, (R)-2-[2-(4-fluoro-phenyl)-benzoxazol-5-ylmethoxycarbonylamino]-3-phenyl-propionic acid] | 208.2 to 208.5 °C
8 | O=C(N[C@H](Cc1ccc(F)cc1)C(=O)O)OCc1cc2cc(-c3ccccc3)ccc2o1 (hydrate or solvate) [Compound 105, (R)-3-(4-fluoro-phenyl)-2-(5-phenylbenzofuran-2-ylmethoxycarbonylamino)-propionic acid] | 131.5 to 135 °C
9 | O=C(N[C@H](Cc1cccc(F)c1)C(=O)O)OCc1cc2cc(-c3ccccc3)ccc2o1 [Compound 108, (R)-3-(3-fluoro-phenyl)-2-(5-phenyl-benzofuran-2-ylmethoxycarbonylamino)-propionic acid] | 141.4 to 142.3 °C
10 | Cn1cc(C[C@@H](NC(=O)OCc2ccc(-c3ccccc3)cc2)C(=O)O)c2ccccc21 [Compound 145, (R)-2-(biphenyl-4-ylmethoxycarbonylamino)-3-(1-methyl-1H-indol-3-yl)-propionic acid] | 156.7 to 157.2 °C
11 | CC(C)(C)c1ccc(-c2ccc3oc(COC(=O)N[C@H](Cc4ccc(F)cc4)C(=O)O)cc3c2)cc1 [Compound 117, (R)-2-[5-(4-tert-butyl-phenyl)-benzofuran-2-ylmethoxycarbonylamino]-3-(4-fluoro-phenyl)-propionic acid] | 114.3 to 124.6 °C
12 | O=C(N[C@H](Cc1ccccc1)C(=O)O)OCc1cc2cc(-c3cccc4c3OCO4)ccc2o1 [Compound 102, (R)-2-(5-benzo[1,3]dioxol-4-yl-benzofuran-2-ylmethoxycarbonylamino)-3-phenyl-propionic acid] | 191 to 192 °C
13 | O=C(N[C@H](Cc1ccc(F)cc1)C(=O)O)OCc1cc2cc(-c3cc(F)ccc3F)ccc2o1 [Compound 121, (R)-2-[5-(2,5-difluoro-phenyl)-benzofuran-2-ylmethoxycarbonylamino]-3-(4-fluoro-phenyl)-propionic acid] | 98 to 101 °C
14 | O=C(N[C@H](Cc1ccc(F)cc1)C(=O)O)OCc1ccc2oc(-c3cc(F)cc(F)c3)nc2c1 [Compound 160, (R)-2-[2-(3,5-difluoro-phenyl)-benzoxazol-5-ylmethoxycarbonylamino]-3-(4-fluoro-phenyl)-propionic acid] | 196.2 to 197.7 °C
15 | O=C(O)CC(Cc1ccccc1)NC(=O)OCc1cc2cc(-c3ccccc3)ccc2o1 (stereo not shown) [Compound 110, 4-phenyl-3-(5-phenyl-benzofuran-2-ylmethoxycarbonylamino)-butyric acid] | 168 to 169.8 °C
16 | O=C(N[C@H](Cc1ccc(F)cc1)C(=O)O)OCc1cc2cc(-c3cc(F)cc(F)c3)ccc2o1 [Compound 123, (R)-2-[5-(3,5-difluoro-phenyl)-benzofuran-2-ylmethoxycarbonylamino]-3-(4-fluoro-phenyl)-propionic acid] | 174 to 175 °C
17 | CCn1cc(CC(NC(=O)OCc2ccc(-c3ccccc3)cc2)C(=O)O)c2ccccc21 (stereo not shown) [Compound 147, 2-(biphenyl-4-ylmethoxycarbonylamino)-3-(1-ethyl-1Hindol-3-yl)-propionic acid] | 136.8 to 138.5 °C
18 | Cn1c(-c2ccccc2)nc2cc(COC(=O)N[C@H](Cc3ccccc3)C(=O)O)ccc21 [Compound 130, (R)-2-(1-Methyl-2-phenyl-1H-benzoimidazol-5-ylmethoxycarbonylamino)-3-phenyl-propionic acid] | 176 to 177 °C
19 | Cc1ccc(-c2cc(COC(=O)NC(Cc3ccccc3)C(=O)O)co2)cc1 (stereo not shown) [Compound 127, 3-phenyl-2-(5-p-tolyl-furan-3-ylmethoxycarbonylamino)-propionic acid] | 67.7 to 68.2 °C
20 | O=C(N[C@H](Cc1ccccc1)C(=O)O)OCc1cc2cc(-c3cccc4[nH]ccc34)ccc2o1 (as salt: salt) [Compound 137, (R)-2-[5-(1H-indol-4-yl)-benzofuran-2-ylmethoxycarbonylamino]-3-phenyl-propionic acid] | 100 to 106 °C
21 | CC(C)n1cc(CC(NC(=O)OCc2ccc(-c3ccccc3)cc2)C(=O)O)c2ccccc21 (stereo not shown) [Compound 148, 2-(biphenyl-4-ylmethoxycarbonylamino)-3-(1-isopropyl-1H-indol-3-yl)-propionic acid] | 143.1 to 144.8 °C
22 | O=C(N[C@H](Cc1ccccc1)C(=O)O)OCc1cc2cc(-c3ccc(F)cc3)ccc2o1 (hydrate or solvate) [Compound 91, (R)-2-[5-(4-fluoro-phenyl)-benzofuran-2-ylmethoxycarbonylamino]-3-phenyl-propionic acid] | 129.5 to 131.5 °C
23 | O=C(N[C@H](Cc1ccc(F)cc1)C(=O)O)OCc1ccc2oc(-c3ccc(F)cc3)nc2c1 [Compound 157, (R)-3-(4-fluoro-phenyl)-2-[2-(4-fluoro-phenyl)-benzoxazol-5-ylmethoxycarbonylamino]-propionic acid] | 197.1 to 198.7 °C
24 | O=C(N[C@H](Cc1cccc(F)c1)C(=O)O)OCc1cc2cc(-c3ccc(F)cc3)ccc2o1 [Compound 120, (R)-3-(3-fluoro-phenyl)-2-[5-(4-fluoro-phenyl)-benzofuran-2-ylmethoxycarbonylamino]-propionic acid] | 81.7 to 82.9 °C

Now from value to molecule:

Row | melting point | Structure (SMILES)
25 | 62.5 to 64.8 °C | COc1cccc(OCc2ccc(COC(=O)NC(Cc3ccccc3)C(=O)O)cc2)c1 (stereo not shown) (hydrate or solvate) [Compound 154, 2-[4-(3-methoxy-phenoxymethyl)-benzyloxycarbonylamino]-3-phenyl-propionic acid]
26 | 189.4 to 189.8 °C | O=C(N[C@H](Cc1ccccc1)C(=O)O)OCc1ccc(COc2cccc3ncccc23)cc1 [Compound 152, (R)-3-phenyl-2-[4-(quinolin-5-yloxymethyl)-benzyloxycarbonylamino]-propionic acid]
27 | 130 to 131.3 °C | O=C(N[C@H](Cc1ccccc1)C(=O)O)OCc1ccc(OCCOc2ccccc2)cc1 [Compound 89, (R)-2-[4-(2-phenoxy-ethoxy)-benzyloxycarbonylamino]-3-phenyl-propionic acid]
28 | 134.8 to 135.2 °C | O=C(NC(Cc1ccccc1)C(=O)O)OCc1ccc(CCCc2ccccc2)cc1 (stereo not shown) [Compound 168, 3-Phenyl-2-[4-(3-phenyl-propyl)-benzyloxycarbonylamino]-propionic acid]
29 | 115.9 to 116.7 °C | O=C(N[C@H](Cc1ccccc1)C(=O)O)OCc1ccc(COc2ccccc2)cc1 [Compound 7, (R)-2-(4-Phenoxymethyl-benzyloxycarbonylamino)-3-phenyl-propionic acid]
30 | 196.9 to 198.1 °C | O=C(NC(Cc1ccccc1)C(=O)O)OCc1ccc(NC(=O)c2ccccc2)cc1 (stereo not shown) [Compound 181, 2-(4-benzoylamino-benzyloxycarbonylamino)-3-phenyl-propionic acid]
31 | 122 to 125 °C | O=C(N[C@H](Cc1ccccc1)C(=O)O)OCc1ccc(Cn2ccc3ccccc32)cc1 [Compound 153, (R)-2-(4-indol-1-ylmethyl-benzyloxycarbonylamino)-3-phenyl-propionic acid]
32 | 190 to 191 °C | O=C(N[C@H](Cc1ccccc1)C(=O)O)OCc1ccc2nc(-c3ccccc3)ccc2c1 [Compound 131, (R)-3-phenyl-2-(2-phenyl-quinolin-6-ylmethoxycarbonylamino)-propionic acid]
33 | 160.8 to 161.7 °C | O=C(N[C@H](Cc1ccccc1)C(=O)O)OCc1ccc(COc2cccc([N+](=O)[O-])c2)cc1 [Compound 80, (R)-2-[4-(3-nitro-phenoxymethyl)-benzyloxycarbonylamino]-3-phenyl-propionic acid]
34 | 107.9 to 110 °C | O=C(NC(Cc1ccccc1)C(=O)O)OCc1ccc(COc2cccc(F)c2)cc1 (stereo not shown) [Compound 76, 2-[4-(3-fluoro-phenoxymethyl)-benzyloxycarbonylamino]-3-phenyl-propionic acid]
35 | 172.1 to 173.4 °C | O=C(NC(Cc1ccccc1)C(=O)O)OCc1ccc(C#Cc2ccccc2)cc1 (stereo not shown) [Compound 182, 3-phenyl-2-(4-phenylethynyl-benzyloxycarbonylamino)-propionic acid]
36 | 108.8 to 110.5 °C | O=C(N[C@H](Cc1ccccc1)C(=O)O)OCc1ccc2oc(Cc3ccccc3)cc2c1 [Compound 139, (R)-2-(2-benzyl-benzofuran-5-ylmethoxycarbonylamino)-3-phenyl-propionic acid]
37 | 118.3 to 119.9 °C | O=C(Cc1ccc(OCc2ccccc2)cc1)NC(Cc1ccccc1)C(=O)O (stereo not shown) [Compound 84, 2-(4-benzyloxybenzylcarbonylamino)-3-phenyl-propionic acid]
